Laboratory results reported in patent publication US8332028B2, “Protected lithium electrodes for electro-transport drug delivery” (PolyPlus Battery Company, priority 2006, dated 2012).

Assay: in vitro Li delivery through pig skin in a flow-through Li-AgCl cell (protected Li metal foil donor electrode)
Format: in vitro ADME
Procedure: The glass receptor compartment was similar to one described by Phipps et al. (1988) Solid State Ionics 28-30: 1778-1783, for ionophoretic drug delivery experiments. The receptor compartment was filled with RPMI-1640 Medium (Sigma Aldrich). The antibiotic gentamicin sulphate was added to the receptor compartment fluid to inhibit bacterial growth.
The prepared skin was stored in RPMI-1640 medium overnight before the start of the experiment. The skin was placed on the receptor chamber and kept in place and stretched out with an O-ring around the neck of the chamber. The visceral surface of the skin was in contact with the receptor fluid.
A square 1 cm×1 cm silver chloride cathode with a capacity of approximately 40 mAh was introduced into the receptor chamber through a port. A multi-channel peristaltic pump was used to create a flow of the RPMI-1640 medium through receptor compartments of several cells. In our experiments we used a flow rate of 2.1 mL/hr. Periodic sampling of the receptor compartment fluid was performed automatically. The temperature inside the water-jacketed receptor compartment was kept at 37° C. The fluid inside the receptor compartment was stirred with a magnetic stir bar.
The donor chamber was positioned over the skin. It contained Li metal foil and a protective architecture enabling the use of Li in an aqueous environment. The protective architecture comprised a 150 micron thick barrier layer composed of a glass ceramic solid electrolyte plate (AG-01 material from OHARA Corporation with ionic conductivity of ˜10^−4 S/cm) and an anolyte interlayer located between the Li surface and the glass ceramic plate barrier layer. […]
The donor-acceptor chamber assembly was kept in place using a clamp. […] Li content in the fluid samples taken from receptor compartment was analyzed by ICP-MS.
The rate of Li delivery into the receptor compartment was calculated as a product of Li concentration and the flow rate of the receptor fluid.

## [Li] [Li, lithium]
0.2 mA/cm^2 vs 0.1 mA/cm^2, FIG. 9
  Li content in receptor fluid samples, comparison of current densities: significantly larger for the rate of 0.2 mA/cm^2 than for 0.1 mA/cm^2
Before current passing
  initial Li content of the receptor solution: ≤ 6 µg/L
Constant current 0.1 mA/cm^2 (27 hrs) and 0.2 mA/cm^2 (24 hrs), 37° C., RPMI-1640 receptor fluid, ICP-MS, FIG. 9
  Li content in receptor fluid samples over time: gradually increased over time
